Laboratory results taken from US20050153303A1, “Method of mutagenic chain reaction” (priority 2003, published 2005).
Several values for one entry are separate records, joined by “and”; a condition that tells them apart may be missing. Equal values may be shown once. Read-outs that look alike come from different tables or passages of the source.

Experiments:
Taq DNA polymerase [1] = molecular target: T1, Taq DNA polymerase (Thermus aquaticus, UniProt P19821); details: 0.5 mM MnCl2, Equimolar dNTPs
Method: (§1) 100ng of genomic DNA from Actinobacillus pleuropneumoniae was used as template. PCR cycles were as follows: 7 min at 95° C., then 30 cycles of polymerisation [45 s at 95° C., 45 s at 53° C., 1 min at 72°^C].

Ventr (exo-) polymerase = molecular target: T2, Ventr (exo-) polymerase (Thermococcus litoralis, UniProt P30317, D141A/DEL1082-1471/DEL495-1032/E143A); format: biochemical; details: for Amplification yield (% of C+): Ventr (exo-), 0.5 mM MnCl2
T2 construct: purchased New England Biolabs
Method: (§2) Control PCR condition: 2 units of Vent exo^−DNA polymerase were used in a 50 μL reaction volume containing 200 μM of each dNTPs, 10mM KCl, 10mM (NH4)2SO4, […] pH 8.8, 2mM MgSO4, 0.1% Triton™ X-100, 0.2 μM of each primers and 10ng of plasmid DNA. PCR were performed in a GeneAmp PCR system 9700 (Perkin-Elmer) as follows: 5 min at 95° C. (first denaturation), followed by 30 cycles of polymerisation [30 s at 95° C. (denaturation), 30 s at 65° C. (annealing) , 2 min at 72° C. (polymerisation)].
(§3) When a modified dNTPs ratio was used, fmal concentrations were 200 μM for dATP and dTTP and 800 μM for dCTP and dGTP.
Enzymatic activity of DNA polymerases has been determined by ethidium bromide staining of 1% agarose gel. Band intensity of 2 μL aliquots of amplicon issued from mutagenic PCR were compared to the intensity of bands obtained from several dilutions of standard PCR.
In order to assess the impact of the chemical stress induced by alcohols and urea on PCR, we measured the amplification yield was measured and compared it to that of a standard PCR. The size of a library generated by error-prone PCR is proportional to the amplification yield, therefore it is of a paramount importance to maintain the amplification yield as high as possible. Concentration of alcohol leading to a reduction in amplification yield was detected were chosen to determine their impact on amplified sequences. Such concentrations were defined as “critical” concentration of alcohol.

Taq polymerase = Taq polymerase (Thermus aquaticus, UniProt P19821); format: biochemical
[2] = molecular target: T3, Ventr (exo-) DNA polymerase (Thermococcus litoralis, UniProt P30317, D141A/DEL1082-1471/DEL495-1032/E143A); test: PCR measuring maximal length of amplification; format: biochemical
T3 construct: purchased New England Biolabs
Method: as §1

Taq DNA polymerase [3] = molecular target: T1, Taq DNA polymerase; format: biochemical
[4] = molecular target: T3, Ventr (exo-) DNA polymerase; format: biochemical
Method: The template used for PCR is the gene coding for MB-1 His (384 bp) (Grundy J. et al., (1998) Journal of Biotechnology, 63:9-15) cloned in the 6.6kb pMAL-c2 vector (New England Biolabs, cat no. M0257S). The template was obtained by plasmid purification of E. coli with XL-1 Blue (Stratagene) Miniprep protocol (Qiagen) and quantified using UV spectrometry.
as §2, §3
pMAL-c2 vector (New England Biolabs) was digested with SacI and HindIII endonucleases (New England Biolabs) and gel purified (1% agarose) using Qiaex gel extraction kit (Qiagen) and Agarose A from LAB MAT. The 384 bp PCR products were also gel purified. […] The purified products were then concatenated in a kination/ligation using T4 Polynucleotide kinase and T4 DNA ligase (New England Biolabs) for 3 hours at room temperature followed by a restriction digestion using SacI and HindIII endonucleases for 5 hours at 37° C. Then, the digested PCR products were purified using PCR purification kit (Qiagen) and ligated with pMAL-c2 vector using T4 DNA ligase at 16° C. overnight.
5 μL of ligation product mixed with 50 μL of E. coli XL-1 Blue hypercompetent cells were incubated on ice for 30 min, heatshocked at 42° C. for 45 sec and re-incubated on ice for 2 min. Then, 1mL of SOC medium was added and the mixture was incubated for 1 hour at 37° C. with shaking. Transformed Cells were then selected on LB agar plates containing 100 μg/mL ampicillin.
Plasmids from transformant colonies were purified with Qiaprep Spin miniprep kit (Qiagen) and digested with SacI/HindIII to confirm the presence of the 384 bp fragment corresponding to MB-1 His gene. Plasmids were then sequenced by the dye-terminator method (Service d'analyse et de synthèse, Université Laval). Complete sequences were analysed with LFASTA software (Chao K. M. (1998), Comput. Appl. Biosci., 8:481-487), allowing for comparison of control and mutated DNA. Mutation rate and mutation types were calculated from such a comparison.

[5] = molecular target: Deep Ventr (exo-) polymerase (Pyrococcus sp., UniProt Q51334, D141A/DEL493-1029/E143A); format: biochemical, Pyrococcus species GB-D
[6] = Taq, 0.5 mM MnCl2, Equimolar dNTPs
[7] = Taq, 0.5 mM MnCl2, Equimolar dNTPs, % of total mutations
[8] = Ventr (exo-), 0.5 mM MnCl2, AG/CT = 1/4
[9] = Ventr (exo-), 0.5 mM MnCl2, AG/CT = 1/4, % of total mutations
[10] = Ventr (exo-), 0.5 mM MnCl2, AT/GC = 1/4
[11] = Ventr (exo-), 0.5 mM MnCl2, AT/GC = 1/4, % of total mutations
[12] = Ventr (exo-), 0.5 mM MnCl2, Equimolar dNTPs
[13] = Ventr (exo-), 0.5 mM MnCl2, Equimolar dNTPs, % of total mutations
[14] = Ventr (exo-), 0.5 mM MnCl2, Equimolar dNTPs, listed as manganese
[15] = Ventr (exo-) polymerase, concentration leading to reduction in amplification yield
[16] = Taq polymerase, concentration leading to reduction in amplification yield
[17] = concentration leading to reduction in amplification yield

T3 sequence (P30317 other isoform, or with tags, fused parts or gaps D141A/E143A/DEL495-1032/DEL1082-1471): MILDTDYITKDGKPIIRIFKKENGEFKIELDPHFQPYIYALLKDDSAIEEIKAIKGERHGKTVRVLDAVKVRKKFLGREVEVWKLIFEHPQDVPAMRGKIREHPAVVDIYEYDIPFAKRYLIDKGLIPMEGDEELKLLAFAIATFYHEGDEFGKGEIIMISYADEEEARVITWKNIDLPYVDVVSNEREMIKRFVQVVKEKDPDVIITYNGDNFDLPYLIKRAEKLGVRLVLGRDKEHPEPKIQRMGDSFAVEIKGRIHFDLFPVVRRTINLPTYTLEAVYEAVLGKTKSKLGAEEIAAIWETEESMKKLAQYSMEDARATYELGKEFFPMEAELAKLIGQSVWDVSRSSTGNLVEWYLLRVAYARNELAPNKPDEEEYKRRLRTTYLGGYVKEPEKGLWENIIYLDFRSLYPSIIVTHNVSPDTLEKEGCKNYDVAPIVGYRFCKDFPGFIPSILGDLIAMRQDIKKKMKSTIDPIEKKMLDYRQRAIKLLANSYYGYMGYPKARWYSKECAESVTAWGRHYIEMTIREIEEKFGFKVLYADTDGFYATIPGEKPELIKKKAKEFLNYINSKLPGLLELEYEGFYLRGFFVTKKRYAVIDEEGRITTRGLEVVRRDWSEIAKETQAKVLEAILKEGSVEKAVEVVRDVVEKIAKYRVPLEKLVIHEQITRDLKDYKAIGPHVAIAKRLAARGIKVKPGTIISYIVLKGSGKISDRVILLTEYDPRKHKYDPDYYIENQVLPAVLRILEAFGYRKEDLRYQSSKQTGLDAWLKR
T2 sequence (P30317 other isoform, or with tags, fused parts or gaps D141A/E143A/DEL495-1032/DEL1082-1471): as above
T1 sequence (P19821 whole entry): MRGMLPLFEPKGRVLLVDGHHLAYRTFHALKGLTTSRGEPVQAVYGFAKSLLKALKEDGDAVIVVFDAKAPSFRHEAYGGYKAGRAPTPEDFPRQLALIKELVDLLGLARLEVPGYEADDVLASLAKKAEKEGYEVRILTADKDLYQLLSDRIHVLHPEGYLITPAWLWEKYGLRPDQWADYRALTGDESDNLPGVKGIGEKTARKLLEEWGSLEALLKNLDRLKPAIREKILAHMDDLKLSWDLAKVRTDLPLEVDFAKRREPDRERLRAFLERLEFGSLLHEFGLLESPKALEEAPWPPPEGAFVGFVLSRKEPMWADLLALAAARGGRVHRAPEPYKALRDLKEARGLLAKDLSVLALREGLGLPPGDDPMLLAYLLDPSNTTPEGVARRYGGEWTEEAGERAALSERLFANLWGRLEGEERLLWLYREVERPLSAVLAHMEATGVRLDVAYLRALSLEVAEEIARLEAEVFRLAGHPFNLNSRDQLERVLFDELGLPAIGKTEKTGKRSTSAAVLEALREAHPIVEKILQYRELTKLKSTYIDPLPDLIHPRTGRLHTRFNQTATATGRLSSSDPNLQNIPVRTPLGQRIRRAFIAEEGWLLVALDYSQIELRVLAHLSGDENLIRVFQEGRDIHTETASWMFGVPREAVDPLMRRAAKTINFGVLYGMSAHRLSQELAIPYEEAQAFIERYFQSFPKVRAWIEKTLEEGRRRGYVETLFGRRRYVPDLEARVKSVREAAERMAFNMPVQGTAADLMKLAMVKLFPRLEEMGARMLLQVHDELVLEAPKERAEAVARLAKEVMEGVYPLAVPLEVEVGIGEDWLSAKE
Sequence of Taq polymerase (P19821 whole entry): as above
Sequence of Deep Ventr (exo-) polymerase (Q51334 other isoform, or with tags, fused parts or gaps D141A/E143A/DEL493-1029): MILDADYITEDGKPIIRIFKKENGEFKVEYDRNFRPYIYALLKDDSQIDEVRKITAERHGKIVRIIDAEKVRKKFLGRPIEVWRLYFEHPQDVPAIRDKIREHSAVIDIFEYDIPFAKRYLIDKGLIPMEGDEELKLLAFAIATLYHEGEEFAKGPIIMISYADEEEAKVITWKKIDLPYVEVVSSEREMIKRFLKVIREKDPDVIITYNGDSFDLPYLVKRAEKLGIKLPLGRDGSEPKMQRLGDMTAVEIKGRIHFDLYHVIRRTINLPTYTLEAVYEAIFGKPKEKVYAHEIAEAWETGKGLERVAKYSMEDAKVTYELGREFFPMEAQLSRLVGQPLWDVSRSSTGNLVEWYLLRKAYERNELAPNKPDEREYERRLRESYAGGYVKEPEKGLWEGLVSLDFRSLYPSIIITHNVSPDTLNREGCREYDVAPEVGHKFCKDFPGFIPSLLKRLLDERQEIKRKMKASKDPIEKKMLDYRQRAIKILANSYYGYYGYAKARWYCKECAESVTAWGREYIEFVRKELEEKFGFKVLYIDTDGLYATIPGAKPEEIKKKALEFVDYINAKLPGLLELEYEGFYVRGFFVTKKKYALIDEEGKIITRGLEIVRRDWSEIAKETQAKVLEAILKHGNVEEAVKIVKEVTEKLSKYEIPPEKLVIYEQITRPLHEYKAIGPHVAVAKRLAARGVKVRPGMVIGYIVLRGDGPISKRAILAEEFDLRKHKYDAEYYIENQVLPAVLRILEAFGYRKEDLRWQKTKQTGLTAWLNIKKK

manganese chloride [MnCl2]
Maximal lenght of amplification (Taq DNA polymerase [1]): 0.4 kb | Amplification yield (% of C+) (Ventr (exo-) polymerase; AG/CT = 1/4): 75 % of C+ | Amplification yield (% of C+) (Ventr (exo-) polymerase; AT/GC = 1/4): 75 % of C+ | Amplification yield (% of C+) (Ventr (exo-) polymerase; Equimolar dNTPs): 75 % of C+ | Amplification yield (% of C+) (Taq polymerase; [6]): 75 % of C+ | Maximal lenght of amplification ([2]; 0.5 mM MnCl2, AG/CT = 1/4): 0.8 kb | Maximal lenght of amplification ([2]; 0.5 mM MnCl2, AT/GC = 1/4): 1.6 kb | Maximal lenght of amplification ([2]; 0.5 mM MnCl2, Equimolar dNTPs): 0.8 kb | Deletion Frequency (Taq DNA polymerase [3]; [6]): 0.04% | Mutation Frequency (Taq DNA polymerase [3]; [6]): 8.48% | Bias indicator A, T turns N (Taq DNA polymerase [3]; [7]): 72% | Bias indicator G, C turns N (Taq DNA polymerase [3]; [7]): 24% | Bias indicator N turns A, T (Taq DNA polymerase [3]; [7]): 43% | Deletion Frequency [4, 8]: 0.03% | Mutation Frequency [4, 8]: 2.30% | Bias indicator A, T turns N [4, 9]: 30% | Bias indicator G, C turns N [4, 9]: 67% | Bias indicator N turns A, T [4, 9]: 73% | Deletion Frequency [4, 10]: 0.00% | Mutation Frequency [4, 10]: 0.52% | Bias indicator A, T turns N [4, 11]: 88% | Bias indicator G, C turns N [4, 11]: 12% | Bias indicator N turns A, T [4, 11]: 25% | Deletion Frequency [4, 12]: 0.00% | Mutation Frequency [4, 12]: 3.70% | Bias indicator A, T turns N [4, 13]: 23% | Bias indicator G, C turns N [4, 13]: 77% | Bias indicator N turns A, T [4, 13]: 83% | Deletion Frequency [4, 14]: without insertion or deletion | Mutation Frequency [4, 14]: 3.7%

NC(N)=O [Urea]
Critical concentration (Ventr (exo-) polymerase; [15]): 1.5 % v/v | Critical concentration (Ventr (exo-) polymerase; Ventr (exo-) polymerase, in molar): (0.25 M) | Critical concentration (Taq polymerase; [16]): 1.2 % v/v | Critical concentration (Taq polymerase; Taq polymerase, in molar): (0.20 M) | Critical concentration [5, 17]: 1.5 % v/v | Critical concentration ([5]; in molar): (0.25 M) | mutation detected in PCR (Taq DNA polymerase [3]; Taq, critical concentration of urea, more than 2000 nucleotides sequenced): did not detect mutation | mutation detected in PCR ([4]; Ventr (exo-), critical concentration of urea, more than 2000 nucleotides sequenced): did not detect mutation

Butanol
Critical concentration (Ventr (exo-) polymerase; [15]): 4.0 % v/v | Critical concentration (Taq polymerase; [16]): 1.0 % v/v | Critical concentration [5, 17]: 6.0 % v/v

CC(C)O [Isopropanol]
Critical concentration (Ventr (exo-) polymerase; [15]): 10.0 % v/v

CCCO [Propanol, 1-propanol]
Critical concentration (Ventr (exo-) polymerase): 8.0 % v/v | polymerisation activity (Ventr (exo-) polymerase): no polymerisation activity | Amplification yield (% of C+) (Taq polymerase): 50 % of C+ | Critical concentration (Taq polymerase): 2.5 % v/v | polymerisation activity (Taq polymerase): no polymerisation activity | Critical concentration [5, 17]: 8.0 % v/v | Deletion Frequency (Taq DNA polymerase [3]): 0.04% | Mutation Frequency (Taq DNA polymerase [3]): 0.13% | mutations found (Taq DNA polymerase [3]): 3 | Bias indicator A, T turns N [4]: 25% and 24% and 14% | Bias indicator G, C turns N [4]: 67% and 62% and 86% | Bias indicator N turns A, T [4]: 67% and 71% | Mutation Frequency [4]: 0.98% and 0.27% and 0.58% | mutation of guanines and cytosines, of total mutations [4]: 67%
